Source: patent US20040023972A1, “Use of substituted imidazo[1,2-a]-pyridin-, -pyrimidin-and-pyrazin-3-yl-amine derivatives in the preparation of medicaments for inhibiting NOS” (Gruenenthal GmbH, priority 2000, published 2004)

Molecular target: T1, NO synthase (Rattus norvegicus, UniProt P29476)
T1 construct: the supernatant was then removed by decantation and frozen in portions at −80° C; from tissue; host or cells: rat cerebellum, 20,000 g supernatant of homogenate
Experiment: HTS-NOS assay (NOS assay): conversion of radioactive arginine, cation-exchanger filter plate
Type: biochemical
Conditions: for inhibition at 10 µM: read-out: HTS-NOS assay: % inhibition (10 μM)
Protocol: This assay enables the percentage inhibition of NO synthase by an active ingredient to be determined by measuring the NOS activity under the action of the active ingredient. NO synthase is mixed together with radioactively labelled arginine and the active ingredient under suitable conditions. After terminating the NO-forming reaction at a given time, the amount of unconverted arginine is determined directly or indirectly. A comparison of that amount with the amount of arginine that remains in a mixture of NOS and arginine without the addition of active ingredient and under otherwise identical conditions gives the % inhibition of NO synthase by the tested active ingredient. This assay can be carried out as follows:
(a) incubation of NO synthase with labelled arginine as substrate in a reaction vessel,
(b) separation of the labelled arginine from the labelled citrulline optionally formed as a product of the enzymatic reaction, at a time at which the citrulline concentration is increasing,
(c) measurement of the amount of arginine remaining in each case.
Separation is carried out over a filter plate membrane.
This NOS assay is suitable especially for “high throughput screening” (HTS) on microtitre plates (MTP).
In this HTS-NOS assay, radioactive arginine is used as substrate. The assay volume can be chosen in the range from 25 μl to 250 μl, according to the type of microtitre plate (MTP). Depending on the source of the enzyme used, co-factors and co-enzymes are added. Incubation of the batches on this microtitre plate (assay MTP) according to step (a) is carried out at room temperature and is for 5 to 60 minutes according to the enzyme activity used (units). At the end of the incubation (step (a)), the plate is placed into a cell harvester which is equipped with a MTP having a cation-exchanger membrane as the filter base (filter MTP). All batches of the assay MTP are transferred to the filter MTP and filtered off with suction over a cation-exchanger filter plate, a paper filter charged with phosphate groups. The filter MTP is then washed with buffer or water. By means of this procedure, the arginine substrate that remains is bound to the cation exchanger, while the enzymatically formed radioactive citrulline is washed out quantitatively. After drying the filter MTP and adding scintillation liquid, the bound arginine can be counted using a scintillation counter. An uninhibited NOS reaction is reflected in low radioactivity. An inhibited enzyme reaction means that the radioactive arginine has not been converted. This means that a high level of radioactivity is found on the filter.
Rat cerebella were used as the starting tissue. The animals were anaesthetized and sacrificed, the brain tissue, the cerebellum, was removed by dissection, 1 ml of enzyme preparation buffer was added per rat cerebellum (4° C.), and disintegration was carried out using a Polytron homogeniser for 1 minute at 6000 rpm, followed by centrifugation for 15 minutes at 4° C. and 20,000 g; the supernatant was then removed by decantation and frozen in portions at −80° C. (the precipitate was discarded).
96-well MTP having a well capacity of <250 μl were used.
Pipetting sequence: see Table 1.
When the pipetting operation was complete, a cover was placed on the MTP (assay MTP), and incubation was at 25° C. (room temperature (RT)) for from 5 to 60 minutes, according to the amount and activity of the enzyme used.
The contents of the assay MTP were then transferred with the aid of a 96-well cell harvester to a 96-well cation exchanger MTP (filter MTP) and filtered off with suction. This was followed by washing once with […] of H2O (from a bath).
The plate was then dried for 1 hour at 60° C. in a drying cabinet. The underside of the filter MTP was then accurately sealed from beneath with a “back seal”. 35 μl of scintillation fluid per well were then added by means of a pipette. The upper side of the plate was also sealed with a “top seal”. […]

Structure (SMILES)	inhibition at 10 µM [%]	other results
CC(=O)N(c1c(-c2ccc(C(=O)O)s2)nc2cnccn12)C(C)(C)CC(C)(C)C [Example 205, 5-{3-[acetyl-(1,1,3,3-tetramethyl-butyl)-amino]-imidazo[1,2-a]pyrazin-2-yl}-thiophene-2-carboxylic acid]	52	
Cc1ccn2c(NC(C)(C)CC(C)(C)C)c(-c3ccoc3)nc2c1.Cl [Example 311, (2-Furan-3-yl-7-methyl-imidazo[1,2-a]pyridin-3-yl)-(1,1,3,3-tetramethyl-butyl)-amine hydrochloride]		NOS assay % inhibition (Table 5, concentration not given): 45%
CCc1ccn2c(NCc3ccccc3OC)c(-c3ccc([N+](=O)[O-])o3)nc2c1 [Example 313, [7-Ethyl-2-(5-nitro-furan-2-yl)-imidazo[1,2-a]pyridin-3-yl]-(2-methoxy-benzyl)-amine]	32	
CC(=O)N(c1c(-c2cc(C)c(C)o2)nc2ccc(C)cn12)C(C)(C)C [Example 268, N-tert-butyl-N-[2-(4,5-dimethyl-furan-2-yl)-6-methyl-imidazo[1,2-a]pyridin-3-yl]-acetamide]	51	
CC(=O)N(c1c(-c2ccc(C(=O)O)s2)nc2ccccn12)C(C)(C)CC(C)(C)C [Example 176, 5-{3-[acetyl-(1,1,3,3-tetramethyl-butyl)-amino]-imidazo[1,2-a]pyridin-2-yl}-thiophene-2-carboxylic acid]	50	
Cc1cccc(C)c1Nc1c(-c2cccc(Cl)c2Cl)nc2c(C)cccn12 [Example 96, [2-(2,3-Dichlorophenyl)-8-methyl-imidazo[1,2-a]pyridin-3-yl]-(2,6-dimethyl-phenyl)-amine]	55	
CC(=O)N(c1c(C)cccc1C)c1c(-c2cccc(Cl)c2Cl)nc2cccc(C)n12 [Example 236, N-[2-(2,3-dichloro-phenyl)-5-methyl-imidazo[1,2-a]pyridin-3-yl]-N-(2,6-dimethyl-phenyl)-acetamide]	58	
Cc1ccn2c(NC(C)(C)CC(C)(C)C)c(-c3ccc(-c4cccc(Cl)c4)o3)nc2c1 [Example 98, {2-[5-(3-Chlorophenyl)-furan-2-yl]-7-methyl-imidazo[1,2-a]pyridin-3-yl}-(1,1,3,3-tetramethyl-butyl)-amine]	62	
[C-]#[N+]CCCCCCNc1c(-c2ccccc2C)nc2cc(C)ccn12 [Example 97, Methylidyne-[6-(7-methyl-2-o-tolyl-imidazo[1,2-a]pyridin-3-ylamino)-hexyl]-ammonium]		HTS-NOS assay: % inhibition (10 μM): 62%
Cc1ccn2c(NC3CCCCC3)c(-c3ccc([N+](=O)[O-])o3)nc2c1 [Example 99, Cyclohexyl-[7-methyl-2-(5-nitro-furan-2-yl)-imidazo[1,2-a]pyridin-3-yl]-amine]	66	
CC(=O)N(c1c(-c2ccco2)nc2cc(C)cc(C)n12)C1CCCCC1 [Example 203, N-cyclohexyl-N-(2-furan-2-yl-5,7-dimethyl-imidazo[1,2-a]pyridin-3-yl)-acetamide]	60	
Cc1ccn2c(NC3CCCCC3)c(-c3ccncc3)nc2c1 [Example 7, Cyclohexyl-(7-methyl-2-pyridin-4-yl-imidazo[1,2-a]pyridin-3-yl)-amine]	65	
COC(=O)CN(C(C)=O)c1c(-c2ccccc2C)nc2ncccn12 [Example 285, [acetyl-(2-o-tolyl-imidazo[1,2-a]pyrimidin-3-yl)-amino]-acetic acid methyl ester]	51	
Cc1cc(C)n2c(NC3CCCCC3)c(-c3ccncc3)nc2c1 [Example 2, Cyclohexyl-(5,7-dimethyl-2-pyridin-4-yl-imidazo[1,2-a]pyridin-3-yl)-amine]	62	
Cc1ccc2nc(-c3ccc(Cl)cc3Cl)c(Nc3c(C)cccc3C)n2c1 [Example 134, [2-(2,4-Dichlorophenyl)-6-methyl-imidazo[1,2-a]pyridin-3-yl]-(2,6-dimethyl-phenyl)-amine]	56	
